The assay deals with T1, Akt1 (Homo sapiens, UniProt P31749, S473D).
T1 construct: The version of Akt used in these studies lacks the pleckstrin homology (PH) domain
Briefly: Akt1 kinase assay, fluorescence polarization (IMAP). Type of assay: biochemical. As to the method:
The Akt1 kinase assay is based on the measurement of fluorescence polarization using IMAP technology (Molecular Devices Corporation #R8062). Two microliters of inhibitor compounds diluted to a concentration of 10 millimolar are added to column 2 of a polypropylene 96-well plate containing 98 microliters of 100% DMSO; the wells in columns 3-12 contain 60 microliters of 100% DMSO. The various test compounds are serially diluted 1:3 across the plate by pipetting 30 microliters of compounds into wells containing 60 microliters of 100% DMSO. Column 12 receives DMSO only and is used as a negative control for inhibition. The components of the wells are mixed and 15 microliters of each well are transferred to another 96-well plate already containing 60 microliters of reaction buffer (RB: 10 mM Tris-HCl, pH 7.5, 10 mM MgCl2, 0.1 mM EGTA, 0.01% Triton-X100 (Sigma #X-100), freshly added 1 mM DTT). After mixing, the […] reactions are assembled. First, five microliters of the above compound/reaction buffer mixture is transferred to the bottom of a 96-well black polystyrene reaction plate (Costar, #3694). Next, ten microliters of a solution containing 4 micromolar ATP and 40 nanomolar fluorescent-labeled Crosstide (Tamara-labeled […] peptide) are added. Then, 5 microliters (1.5 nanograms) of Akt protein in RB are added. The version of Akt used in these studies lacks the pleckstrin homology (PH) domain, and contains an aspartic acid residue in place of a serine residue in position 473 within the Akt1 hydrophobic motif. The Akt1 protein contains a polyhistidine tag at the amino terminus and is prephosphorylated on threonine at position 308 in order to activate latent kinase activity. Once the reaction components and inhibitors are assembled, the plates are gently tapped, covered with foil, and then incubated at ambient temperature for 30 minutes. IMAP beads (Molecular Devices) are then added (60 microliters of a 1:400 dilution of beads in RB). Plates are read on a Victor Plate Reader with the following settings: CW lamp filter: 544 nm, emission filter: 615 nm. Control values from wells lacking Akt protein are subtracted from the gross readings, and IC50 values are calculated using XLDA.

Where [1] appears, read: Table 3, read-out: Avg Akt kinase, μM (50% inhibition).
Setting [2] is: Table 1, concentration bins, read-out: Concentration Range at which exemplary compounds of formula I inhibit Akt kinase activity.
Setting [3] is: Table 4, read-out: Avg Akt kinase, μM (50% inhibition).
Setting [4] is: average Akt kinase activity (IC50), read-out: Avg Akt kinase, μM (50% inhibition).

Here are results for 28 compounds from patent publication US20080051419A1, “AMINE DERIVATIVES USEFUL AS ANTICANCER AGENTS” (PFIZER INC., priority 2006, published 2008).

Like-named read-outs stand apart in the source and are kept apart here.

T1 sequence (P31749 118-480 S473D limits assumed, species assumed): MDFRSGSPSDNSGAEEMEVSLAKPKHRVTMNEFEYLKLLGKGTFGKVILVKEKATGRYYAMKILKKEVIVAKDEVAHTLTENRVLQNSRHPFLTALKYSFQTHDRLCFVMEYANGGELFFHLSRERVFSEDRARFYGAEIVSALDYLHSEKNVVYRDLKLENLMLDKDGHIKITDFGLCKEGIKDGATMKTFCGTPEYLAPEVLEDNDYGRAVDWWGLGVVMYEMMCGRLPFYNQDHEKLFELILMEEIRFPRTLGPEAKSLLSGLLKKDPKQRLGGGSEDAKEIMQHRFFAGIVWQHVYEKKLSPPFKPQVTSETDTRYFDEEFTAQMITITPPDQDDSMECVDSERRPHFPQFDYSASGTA

Regarding “N-{[3-amino-1-(1H-pyrrolo[2,3-b]pyridin-4-yl)pyrrolidin-3-yl]methyl}-5-chloropyrimidin-2-amine [Example 59]”, under setting [1], the IC50 came out at 0.0035 µM.

As to `Cc1c[nH]c2ncnc(N3CCC(N)(CNCCN(C)C)C3)c12` (centres unmarked) [Example 46, N′-{[3-amino-1-(5-methyl-7H-pyrrolo[2,3-d]pyrimidin-4-yl)pyrrolidin-3-yl]methyl}-N,N-dimethylethane-1,2-diamine], the IC50 is, setting by setting: under setting [2], 0.101 to 10 µM; under setting [1], 0.125 µM.

Take `N#Cc1c[nH]c2ncnc(N3CCC(N)(COc4cccc(C(F)(F)F)c4)C3)c12` (centres unmarked) [Example 63, 4-(3-amino-3-{[3-(trifluoromethyl)phenoxy]methyl}pyrrolidin-1-yl)-7H-pyrrolo[2,3-d]pyrimidine-5-carbonitrile]: the IC50 was 0.0101 to 0.1 µM under setting [2] and 0.0641 µM under setting [3].

On to `Cc1c[nH]c2ncnc(N3CCC(N)(CNc4ccc(CC(N)=O)cc4)C3)c12` (centres unmarked) [Example 16, 2-[4-({[3-amino-1-(5-methyl-7H-pyrrolo[2,3-d]pyrimidin-4-yl)pyrrolidin-3-yl]methyl}amino)phenyl]-acetamide], for which the IC50 is, setting by setting: under setting [2], 0.0101 to 0.1 µM; under setting [1], 0.0143 µM.

Take `Cc1c(Cl)cccc1NCC1(N)CCN(c2ncnc3[nH]cc(Cl)c23)C1` (centres unmarked) [Example 43, 3-{[(3-chloro-2-methylphenyl)amino]methyl}-1-(5-chloro-7H-pyrrolo[2,3-d]pyrimidin-4-yl)pyrrolidin-3-amine]: the IC50 was 0.00025 to 0.0025 µM under setting [2] and 0.002 µM under setting [1].

As for “(E)-3-(3-trifluoromethyl)styryl)-1-(5-methyl-7H-pyrrolo[2,3-d]pyrimidin-4-yl)-3-amine [Example 68]”, under setting [4], the IC50 is 1.14 µM.

For the compound `N#Cc1c[nH]c2nccc(N3CCC(N)(CNc4ccccc4Oc4ccccc4)C3)c12` (centres unmarked) [Example 11, 4-(3-amino-3-{[(2-phenoxyphenyl)amino]methyl}pyrrolidin-1-yl)-1H-pyrrolo[2,3-b]pyridine-3-carbonitrile], the IC50 under setting [2] was in the range of 0.00251 to 0.01 µM.

For `Cc1ccccc1C(=O)NC[C@@]1(N)CCN(c2ncnc3[nH]cc(Cl)c23)C1` [Example 131], the IC50 is 0.00251 to 0.01 µM under setting [2] and 0.01 µM under setting [4].

On to `Cc1c[nH]c2ncnc(N3CCC(N)(CNc4cc(C(F)(F)F)ccc4Oc4ccc(Cl)cc4)C3)c12` (centres unmarked) [Example 33, 3-({[2-(4-chlorophenoxy)-5-(trifluoromethyl)phenyl]amino}-methyl)-1-(5-methyl-7H-pyrrolo[2,3-d]pyrimidin-4-yl)pyrrolidin-3-amine], for which the IC50 by setting is: under setting [2], 0.00251 to 0.01 µM; under setting [1], 0.00859 µM.

For the compound `Cc1c[nH]c2ncnc(N3CC[C@](N)(CNc4cccc(C(F)(F)F)c4)C3)c12` [Example 13, (3S)-1-(5-methyl-7H-pyrrolo[2,3-d]pyrimidin-4-yl)-3-({[3-(trifluoromethyl)phenyl]amino}-methyl)pyrrolidin-3-amine], the IC50 runs as follows: under setting [2], 0.00025 to 0.0025 µM; under setting [1], 0.00226 µM.

Take `COCCN(CC1(N)CCN(c2ncnc3[nH]cc(C)c23)C1)C(=O)Nc1ccccc1` (centres unmarked) [Example 76, 1-{[3-amino-1-(5-methyl-7H-pyrrolo[2,3-d]pyrimidin-4-yl)pyrrolidin-3-yl]methyl}-1-(2-methoxyethyl)-3-phenylurea]: the IC50 was 0.101 to 10 µM under setting [2] and 0.523 µM under setting [4].

Regarding `Cc1cccc(NC(=O)NCC2(N)CCN(c3ncnc4[nH]cc(C)c34)C2)c1C` (centres unmarked) [Example 75, 1-{[3-amino-1-(5-methyl-7H-pyrrolo[2,3-d]pyrimidin-4-yl)pyrrolidin-3-yl]methyl}-3-(2,3-dimethylphenyl)urea], the IC50 was 0.101 to 10 µM under setting [2] and 0.185 µM under setting [4].

Regarding `CCc1c[nH]c2ncnc(N3CCC(N)(COc4cccc(C)c4)C3)c12` (centres unmarked) [Example 65, 1-(5-ethyl-7H-pyrrolo[2,3-d]pyrimidin-4-yl)-3-[(3-methylphenoxy)methyl]pyrrolidin-3-amine], the IC50 was 0.0101 to 0.1 µM under setting [2] and 0.0948 µM under setting [3].

Consider `N#Cc1c[nH]c2ncnc(N3CC[C@](N)(CNC(=O)c4ccccc4)C3)c12` [Example 111, N-{[(3S)-3-amino-1-(5-cyano-7H-pyrrolo[2,3-d]pyrimidin-4-yl)pyrrolidin-3-yl]methyl}benzamide], for which the IC50 under setting [2] fell in the range of 0.0101 to 0.1 µM and the IC50 under setting [4] is 0.0265 µM.

Turning to `Cc1c[nH]c2ncnc(N3CCC(N)(CNc4ccc(C#N)c(Cl)c4)C3)c12` (centres unmarked) [Example 22, 4-({[3-amino-1-(5-methyl-7H-pyrrolo[2,3-d]pyrimidin-4-yl)pyrrolidin-3-yl]methyl}amino)-2-chlorobenzonitrile], the IC50 is, setting by setting: under setting [2], 0.0101 to 0.1 µM; under setting [1], 0.0161 µM.

With `Cc1c[nH]c2ncnc(N3CC[C@](N)(CNC(=O)c4cccc(Cl)c4)C3)c12` [Example 115], the IC50 was 0.00251 to 0.01 µM under setting [2] and 0.00998 µM under setting [4].

Take `Cc1c[nH]c2ncnc(N3CCC(N)(CNc4ccccc4N4CCCCC4)C3)c12` (centres unmarked) [Example 24, 1-(5-methyl-7H-pyrrolo[2,3-d]pyrimidin-4-yl)-3-{[(2-piperidin-1-ylphenyl)amino]methyl}pyrrolidin-3-amine]: the IC50 runs as follows: under setting [2], 0.0101 to 0.1 µM; under setting [1], 0.0108 µM.

On to `Cc1c[nH]c2ncnc(N3CCC(N)(CN(C)C(=O)c4ccccc4F)C3)c12` (centres unmarked) [Example 197, N-((3-amino-1-(5-methyl-7H-pyrrolo[2,3-d]pyrimidin-4-yl)pyrrolidin-3-yl)methyl)-2-fluoro-N-methylbenzamide], for which the IC50 under setting [2] fell in the range of 0.101 to 10 µM and the IC50 (read-out: Avg Akt kinase, μM (50% inhibition)) worked out at 0.148 µM.

Take `Cc1c[nH]c2ncnc(N3CC[C@](N)(CNC(=O)c4cc(F)ccc4F)C3)c12` [Example 101, N-{[(3S)-3-amino-1-(5-methyl-7H-pyrrolo[2,3-d]pyrimidin-4-yl)pyrrolidin-3-yl]methyl}-2,5-difluorobenzamide]: the IC50 by setting is: under setting [2], 0.0101 to 0.1 µM; under setting [4], 0.015 µM.

As for `N[C@]1(CNC(=O)c2ccccc2F)CCN(c2ncnc3[nH]cc(Cl)c23)C1` [Example 80, N-{[(3S)-3-amino-1-(5-chloro-7H-pyrrolo[2,3-d]pyrimidin-4-yl)pyrrolidin-3-yl]methyl}-2-fluorobenzamide], the IC50 under setting [2] lay within 0.00251 to 0.01 µM and the IC50 under setting [4] came out at 0.00424 µM.

For the compound `Cc1c[nH]c2ncnc(N3CCC(N)(CSc4cccc(C(F)(F)F)c4)C3)c12` (centres unmarked) [Example 66, 1-(5-methyl-7H-pyrrolo[2,3-d]pyrimidin-4-yl)-3-((3-(trifluoromethyl)phenylthio)methyl) -pyrrolidin-3-amine], the IC50 under setting [2] fell in the range of 0.101 to 10 µM and the IC50 under setting [4] came to 0.701 µM.

With `CCc1c[nH]c2ncnc(N3CC[C@](N)(CNC(=O)c4c(F)ccc(F)c4F)C3)c12` [Example 132], the IC50 by setting is: under setting [2], 0.0101 to 0.1 µM; under setting [4], 0.0175 µM.

As for `Cc1c[nH]c2ncnc(N3CCC(N)(CNS(=O)(=O)c4ccccc4)C3)c12` (centres unmarked) [Example 77, N-{[3-amino-1-(5-methyl-7H-pyrrolo[2,3-d]pyrimidin-4-yl)pyrrolidin-3-yl]methyl}benzenesulfonamide], the IC50 under setting [2] is 0.101 to 10 µM and the IC50 under setting [4] amounted to 0.177 µM.

On to `N[C@]1(CNC(=O)c2c(F)cccc2F)CCN(c2ncnc3[nH]cc(Cl)c23)C1` [Example 130], for which the IC50 is 0.00251 to 0.01 µM under setting [2] and 0.00906 µM under setting [4].

Consider `COC(=O)c1ccccc1NCC1(N)CCN(c2ncnc3[nH]cc(C)c23)C1` (centres unmarked) [Example 19], for which the IC50 is, setting by setting: under setting [2], 0.00251 to 0.01 µM; under setting [1], 0.01 µM.

For `Cc1ccccc1C(=O)NC[C@@]1(N)CCN(c2ncnc3[nH]cc(C)c23)C1` [Example 127, N-{[(3S)-3-amino-1-(5-methyl-7H-pyrrolo[2,3-d]pyrimidin-4-yl)pyrrolidin-3-yl]methyl}-2-methylbenzamide], the IC50 is 0.0101 to 0.1 µM under setting [2] and 0.0362 µM under setting [4].

Take `Cc1n[nH]c2ncnc(N3CCC(N)(CNc4cccc(Cl)c4F)C3)c12` (centres unmarked) [Example 41, 3-{[(3-chloro-2-fluorophenyl)amino]methyl}-1-(3-methyl-1H-pyrazolo[3,4-d]pyrimidin-4-yl)pyrrolidin-3-amine]: the IC50 was 0.0101 to 0.1 µM under setting [2] and 0.0134 µM under setting [1].

As to `CCc1c[nH]c2ncnc(N3CC[C@](N)(CNC(=O)c4ccc(Cl)cc4F)C3)c12` [Example 103, N-{[(3S)-3-amino-1-(5-ethyl-7H-pyrrolo[2,3-d]pyrimidin-4-yl)pyrrolidin-3-yl]methyl}-4-chloro-2-fluorobenzamide], the IC50 is, setting by setting: under setting [2], 0.00251 to 0.01 µM; under setting [4], 0.00487 µM.
